From patent US11925667B2, “Engineered therapeutic probiotic system and method” (priority 2018, dated 2024)

Legend:
Format in all cases: biochemical
[1] = tested on: myrosinase Q5 (plant-derived myrosinase orthologue); assay: Myrosinase activity assay (glucose release from sinigrin hydrolysis), Q5
Procedure: (§1) Screening for improved β-thioglucosidase. The activity and stability of myrosinase, a β-thioglucosidase that hydrolyzes glucosinolate to sulforaphane, varies at differing pH and temperature; in a preferred embodiment the selected enzyme needs to function under physiological colorectal conditions. The healthy colon pH averages 6.6, while it is 7.0 and 6.7 in patients with adenoma and carcinoma, respectively. In addition, the temperature of the human intestinal tract ranges from 36° C. to 40° C. depending on the individual's metabolic state. In the illustrative example five plant-derived myrosinase orthologues with minimal glycosylation sites and the absence of the co-factor-binding sites using the BLAST search and the Enzyme Function Initiative-Enzyme Similarity Tool (EFI-EST), are compared to the well-characterized myrosinases from Brevicoryne brassicae (BMY1) and Arabidopsis thaliana (TGG1) (FIG. 2a and FIG. 7).
(§2) Gene cloning, protein expression and purification. Myrosinase genes are optimized for E. coli expression and cloned into the pET28b expression vector. The plasmids are transformed into E. coli BL21 (DE3) cultured in lysogeny broth (LB) (BD, Le Pont de Claix, France) at 37° C., 225 rpm to OD600 0.6 followed by 0.5 mM isopropyl β-D-1-thiogalactopyranoside (IPTG) induction at 16° C., 180 rpm for 16 hours. Cells are harvested, resuspended in lysis buffer (50 mM Tris-Cl, 300 mM NaCl, 10% glycerol, 1 mM dithiothreitol [DTT], pH 8.0) and lysed using Emulsiflex C-3 (Avestin). Expressed myrosinases are purified by IMAC Ni-NTA purification followed by Hi-Load Superdex 200 size exclusion column chromatography (GE, Uppsala, Sweden). The purified protein is concentrated and stored at −80° C. Pilot scale protein purification and enzymatic assay is conducted.
(§3) Myrosinase screening assay. The enzymatic reaction is measured for the release of glucose resulting from sinigrin hydrolysis. The reaction is conducted in sodium phosphate-buffered solution supplied in the Amplex® Red Glucose/Glucose Oxidase Assay Kit (Thermo Fisher Scientific, Geel, Belgium). The reaction buffer is prepared at different pH values (6.0, 6.5, 7.4 and 8.0) and at different reaction temperatures (34° C., 37° C., and 40° C.). The reaction is prepared using 0.1 μM purified myrosinase added to 1× Amplex® Red Glucose Assay reaction mixture and was kick-started with the corresponding concentration of sinigrin. The reaction can be measured at 560 nm absorbance and fluorescence (λex=540 nm, λem=590 nm) using a Synergy H1 Multi-Mode microtiter plate reader (BioTek®, Winooski, USA). The reaction initial velocity (VO) is determined and fitted into a Michaelis-Menten curve. Vmax and KM are determined by fitting into the Michaelis-Menten equation (Eq. 1) using GraphPad Prism Software. ^v=Vmax*[Sinigrin]/(KM+[Sinigrin]) (Eq.1)
(§4) Table S1|Myrosinase activity assay screening under various pH and temperature conditions (n=3 independent experiments, each measurement performed in triplicates; mean[…].).

[2] = tested on: myrosinase C9 (plant-derived myrosinase orthologue); assay: Myrosinase activity assay (glucose release from sinigrin hydrolysis), C9
Procedure: as §1, §2, §3, §4

[3] = target: Arabidopsis thaliana myrosinase TGG1 (Arabidopsis thaliana, UniProt P37702); assay: Myrosinase activity assay (glucose release from sinigrin hydrolysis), TGG1
Procedure: as §1, §2, §3, §4

[4] = target: T1, Brevicoryne brassicae myrosinase BMY1 (Brevicoryne brassicae, UniProt Q95X01); assay: Myrosinase activity assay (glucose release from sinigrin hydrolysis), BMY1
T1 sequence (Q95X01 1-464): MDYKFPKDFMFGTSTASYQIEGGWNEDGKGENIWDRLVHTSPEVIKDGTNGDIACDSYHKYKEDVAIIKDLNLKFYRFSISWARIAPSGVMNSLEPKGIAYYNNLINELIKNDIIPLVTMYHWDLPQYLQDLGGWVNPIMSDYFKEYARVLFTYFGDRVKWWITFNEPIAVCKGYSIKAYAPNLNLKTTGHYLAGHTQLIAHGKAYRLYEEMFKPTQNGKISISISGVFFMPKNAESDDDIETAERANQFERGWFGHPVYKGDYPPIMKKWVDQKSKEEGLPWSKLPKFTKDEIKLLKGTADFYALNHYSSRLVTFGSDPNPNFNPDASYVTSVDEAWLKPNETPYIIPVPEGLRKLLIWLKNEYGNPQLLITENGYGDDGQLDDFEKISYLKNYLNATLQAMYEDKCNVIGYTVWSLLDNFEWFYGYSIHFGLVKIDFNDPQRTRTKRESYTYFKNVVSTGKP
Procedure: as §1, §2, §3, §4

[5] = target: T2, Armoracia rusticana myrosinase I1, SEQ ID NO: 6 (Armoracia rusticana, UniProt I1TIJ2); assay: Myrosinase activity assay (glucose release from sinigrin hydrolysis), I1
T2 construct: elsewhere used as YebF-I1 fusion
T2 sequence (I1TIJ2 23-510): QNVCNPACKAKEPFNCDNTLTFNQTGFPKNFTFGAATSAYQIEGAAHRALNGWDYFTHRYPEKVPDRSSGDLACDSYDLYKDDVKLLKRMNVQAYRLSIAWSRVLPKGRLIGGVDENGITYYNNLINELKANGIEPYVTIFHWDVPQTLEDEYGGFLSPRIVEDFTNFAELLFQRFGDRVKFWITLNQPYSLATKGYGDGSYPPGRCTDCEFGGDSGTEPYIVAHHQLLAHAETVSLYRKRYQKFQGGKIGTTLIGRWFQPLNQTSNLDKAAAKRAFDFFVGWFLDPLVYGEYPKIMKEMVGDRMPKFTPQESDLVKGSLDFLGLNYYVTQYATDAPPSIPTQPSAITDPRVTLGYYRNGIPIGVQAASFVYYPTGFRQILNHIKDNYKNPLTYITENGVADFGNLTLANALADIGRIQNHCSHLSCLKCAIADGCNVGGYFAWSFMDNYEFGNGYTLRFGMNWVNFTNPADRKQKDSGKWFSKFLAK
From the text: (§5) In a preferred embodiment, the myrosinases derived from Armoracia rusticana (I1) and Brassica oleacea (A6) have a better stability and catalytic efficiency in various temperatures and pH values when compared with those derived from BMY1 and TGG1 (Table 1). In a preferred illustrative embodiment I1 myrosinase is selected owing to its Km value and improved kcat at the colorectal ambient temperature and pH (FIG. 2c, 2d and Table 1). By comparing the modeled-I1 myrosinase protein structure against that of the BMY1 myrosinase, the critical side chain residues involved in glucose-ring recognition and the glutamic acid that served as a nucleophile during catalysis are conserved. According to the claimed invention the improved catalytic efficiency of the I1 myrosinase is correlated to its pI value (pI=7.90) and the overall positively charged surface (FIG. 8) that contributes to better structural stability.
as §2, §3, §4

[6] = tested on: myrosinase Q9 (plant-derived myrosinase orthologue); assay: Myrosinase activity assay (glucose release from sinigrin hydrolysis), Q9
Procedure: as §1, §2, §3, §4

[7] = tested on: Brassica oleacea myrosinase A6; assay: Myrosinase activity assay (glucose release from sinigrin hydrolysis), A6
From the text: as §5, §2, §3, §4

Arabidopsis thaliana myrosinase TGG1, sequence (P37702 20-541): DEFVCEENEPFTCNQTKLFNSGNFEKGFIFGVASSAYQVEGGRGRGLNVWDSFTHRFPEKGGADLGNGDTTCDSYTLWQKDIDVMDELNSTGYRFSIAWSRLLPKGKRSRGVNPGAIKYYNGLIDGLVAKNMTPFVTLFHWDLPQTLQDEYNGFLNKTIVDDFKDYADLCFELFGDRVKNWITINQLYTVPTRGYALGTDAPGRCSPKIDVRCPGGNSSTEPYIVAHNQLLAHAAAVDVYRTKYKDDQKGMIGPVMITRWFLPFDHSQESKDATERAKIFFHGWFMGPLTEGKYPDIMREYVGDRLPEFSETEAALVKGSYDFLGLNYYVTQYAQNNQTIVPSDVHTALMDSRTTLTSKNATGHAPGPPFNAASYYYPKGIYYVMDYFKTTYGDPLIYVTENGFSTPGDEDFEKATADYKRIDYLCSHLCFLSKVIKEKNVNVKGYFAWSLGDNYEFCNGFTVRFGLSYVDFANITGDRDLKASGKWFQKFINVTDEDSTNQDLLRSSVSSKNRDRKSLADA

C=CC/C(=N/OS(=O)(=O)O)S[C@@H]1O[C@H](CO)[C@@H](O)[C@H](O)[C@H]1O [sinigrin]
Km ([1]; pH 6.0, 37° C.): 184 ± 15 µM | kcar ([1]; pH 6.0, 37° C.): 4.6 ± 1.1 s⁻¹ | Km ([1]; pH 6.5, 37° C.): 127 ± 21 µM | kcar ([1]; pH 6.5, 37° C.): 4.9 ± 1.2 s⁻¹ | Km ([1]; pH 7.4, 34° C.): 225 ± 13 µM | kcar ([1]; pH 7.4, 34° C.): 2.9 ± 1.4 s⁻¹ | Km ([1]; pH 7.4, 37° C.): 25 ± 7 µM | kcar ([1]; pH 7.4, 37° C.): 2.1 ± 1.6 s⁻¹ | Km ([1]; pH 7.4, 40° C.): 49 ± 14 µM | kcar ([1]; pH 7.4, 40° C.): 3.7 ± 1.6 s⁻¹ | Km ([1]; pH 8.0, 37° C.): 154 ± 24 µM | kcar ([1]; pH 8.0, 37° C.): 2.8 ± 1.1 s⁻¹ | Km ([2]; pH 6.0, 37° C.): 439 ± 97 µM | kcar ([2]; pH 6.0, 37° C.): 5.6 ± 0.8 s⁻¹ | Km ([2]; pH 6.5, 37° C.): 290 ± 31 µM | kcar ([2]; pH 6.5, 37° C.): 9.0 ± 0.9 s⁻¹ | Km ([2]; pH 7.4, 34° C.): 384 ± 28 µM | kcar ([2]; pH 7.4, 34° C.): 11.2 ± 2.4 s⁻¹ | Km ([2]; pH 7.4, 37° C.): 38 ± 2 µM | kcar ([2]; pH 7.4, 37° C.): 3.4 ± 0.6 s⁻¹ | Km ([2]; pH 7.4, 40° C.): 352 ± 68 µM | kcar ([2]; pH 7.4, 40° C.): 9.0 ± 0.9 s⁻¹ | Km ([2]; pH 8.0, 37° C.): 842 ± 80 µM | kcar ([2]; pH 8.0, 37° C.): 10.7 ± 1.3 s⁻¹ | kcar ([3]; pH 6.0, 37° C.): 10.2 ± 0.6 s⁻¹ | kcar ([3]; pH 6.5, 37° C.): 8.6 ± 1.6 s⁻¹ | kcar ([3]; pH 7.4, 34° C.): 6.9 ± 1.6 s⁻¹ | kcar ([3]; pH 7.4, 37° C.): 6.4 ± 1.1 s⁻¹ | kcar ([3]; pH 7.4, 40° C.): 6.5 ± 0.2 s⁻¹ | kcar ([3]; pH 8.0, 37° C.): 4.3 ± 0.7 s⁻¹ | kcar ([4]; pH 6.0, 37° C.): 5.7 ± 0.8 s⁻¹ | kcar ([4]; pH 6.5, 37° C.): 11.8 ± 0.4 s⁻¹ | kcar ([4]; pH 7.4, 34° C.): 6.9 ± 0.4 s⁻¹ | kcar ([4]; pH 7.4, 37° C.): 6.0 ± 0.7 s⁻¹ | kcar ([4]; pH 7.4, 40° C.): 9.1 ± 0.8 s⁻¹ | kcar ([4]; pH 8.0, 37° C.): 5.6 ± 0.6 s⁻¹ | kcar ([5]; pH 6.0, 37° C.): 6.6 ± 0.7 s⁻¹ | kcar ([5]; pH 6.5, 37° C.): 7.9 ± 1.1 s⁻¹ | kcar ([5]; pH 7.4, 34° C.): 3.4 ± 0.7 s⁻¹ | kcar ([5]; pH 7.4, 37° C.): 15.0 ± 1.5 s⁻¹ | kcar ([5]; pH 7.4, 40° C.): 15.2 ± 1.5 s⁻¹ | kcar ([5]; pH 8.0, 37° C.): 6.6 ± 3.1 s⁻¹ | Km ([6]; pH 6.0, 37° C.): 111 ± 3 µM | kcar ([6]; pH 6.0, 37° C.): 3.0 ± 0.6 s⁻¹ | Km ([6]; pH 6.5, 37° C.): 291 ± 5 µM | kcar ([6]; pH 6.5, 37° C.): 7.8 ± 0.8 s⁻¹ | kcar ([6]; pH 7.4, 34° C.): 13.0 ± 3.5 s⁻¹ | kcar ([6]; pH 7.4, 37° C.): 3.8 ± 1.5 s⁻¹ | Km ([6]; pH 7.4, 40° C.): 893 ± 23 µM | kcar ([6]; pH 7.4, 40° C.): 12.3 ± 3.9 s⁻¹ | Km ([6]; pH 8.0, 37° C.): 473 ± 6 µM | kcar ([6]; pH 8.0, 37° C.): 4.4 ± 1.0 s⁻¹ | Km ([7]; pH 6.0, 37° C.): 68 ± 2 µM | kcar ([7]; pH 6.0, 37° C.): 6.6 ± 1.3 s⁻¹ | Km ([7]; pH 6.5, 37° C.): 187 ± 13 µM | kcar ([7]; pH 6.5, 37° C.): 15.0 ± 1.5 s⁻¹ | Km ([7]; pH 7.4, 34° C.): 47 ± 5 µM | kcar ([7]; pH 7.4, 34° C.): 7.2 ± 1.3 s⁻¹ | Km ([7]; pH 7.4, 37° C.): 44 ± 4 µM | kcar ([7]; pH 7.4, 37° C.): 5.2 ± 0.9 s⁻¹ | Km ([7]; pH 7.4, 40° C.): 189 ± 39 µM | kcar ([7]; pH 7.4, 40° C.): 9.7 ± 1.3 s⁻¹ | Km ([7]; pH 8.0, 37° C.): 142 ± 22 µM | kcar ([7]; pH 8.0, 37° C.): 9.3 ± 1.2 s⁻¹
